# Measurements taken from a melting point compilation (Tetko et al.; mined from patent text by program, amines drawn as free bases though some values may be those of a salt).
row,Compound,melting point
1,CN1C(=O)C(C)(C)N=C(c2ccccc2Cl)c2cc(N)ccc21,85 to 110 °C
2,CC(=O)OC1CCC2(C)C(=CC(=O)C3C2CCC2(C)C(C(C)CCCC(C)C)CCC32)C1 (stereo not drawn),151 to 154 °C
3,NC(=S)Nc1ncccn1,262 to 264 °C
4,CCCCCCCCCCCCCCCCOCC(COP(=O)(O)O)OCCCCCCCCCCCCCCCC (stereo not drawn),157 to 159 °C
5,CC(=O)NCC(C)(C)c1ccc(C(=O)Nc2cn3cc(-n4ccnc4)ccc3n2)cc1,242 to 244 °C
6,OCC1OC(n2c(SCc3ccccc3)nc3cc(Cl)c(Cl)cc32)C(O)C1O (stereo not drawn),196 to 198 °C
7,CCn1c(=O)c(-c2ccsc2)cc2cnc(Nc3ccccc3)nc21,223 to 225 °C
8,O=C1Nc2cc(Cl)c(Cl)cc2N2CCNC[C@H]12,136 to 138 °C
9,CC(C)n1cnc(N2CCc3ccccc3CC2)c(C#N)c1=O,152 to 154 °C
10,O=C(O)c1cc(S(=O)(=O)Oc2ccc(-c3ccc(-c4c(Cc5ccccc5)oc5ccccc45)cc3)cc2)ccc1O,171 to 173 °C
11,N#Cc1cccc(-c2ccccc2O)c1,120 to 123 °C
12,O=C(NCC12CC3CC(CC(C3)C1)C2)c1cc(-c2cc(F)ccc2C(=O)O)ccc1Cl,120 to 124 °C
13,O=C(O)/C=C/c1nncn1-c1ccc(F)cc1,226 to 229 °C
14,O=C(C1CCCCC1)N1CC(=S)N2CCCc3ccccc3C2C1 (stereo not drawn),150 to 151 °C
15,Cc1nnc2n1-c1ccc(C#CCn3nc4ccccn4c3=O)cc1C(c1ccccc1F)=NC2,170 to 173 °C
16,CC(C)(C)C(=O)OCN(c1ccc(CN2CCN(Cc3ccccc3)C(=O)C2=O)cc1)c1ncccn1,144 to 146 °C
17,Nc1c(C(=O)c2cccc(Cl)c2)cc(Br)cc1[N+](=O)[O-],134 °C
18,COc1ccc2c(c1)C(C)(N1C(=O)c3ccccc3C1=O)C(=O)N2c1ccc(F)cc1 (stereo not drawn),207 to 208 °C
19,C=CCn1c(=S)n(C2OC(CO)C(O)C2O)c2nc(N)[nH]c(=O)c21 (stereo not drawn),> 230 °C
20,ClCCOc1ccc(Cl)c2[nH]cc(Cl)c12,106 to 108 °C
21,CC(C)(C1CC1)C(O)(Cn1cncn1)c1ccc(Cl)cc1 (stereo not drawn),88 to 90 °C

row,Compound,melting point
1,CCOC(=O)NC(=NCCN(Cc1ccc(Cl)cc1)c1ccccn1)NCCCc1c[nH]cn1,94 to 96 °C
2,O=C1CCCN1Cc1ccc(CCn2cnc3cc(-c4ccc(Cl)cc4)sc3c2=O)cc1,218 to 221 °C
3,Cc1ccc2c(C3=C(c4cn(C)c5ccccc45)C(=O)NC3=O)cn(C)c2c1,264 to 266 °C
4,CCCCNC(=O)N1Cc2ccccc2CCC1=O,84.5 to 85 °C
5,CC(C)(Cc1c[nH]c2ccccc12)NCC(O)COc1ccccc1C#N (stereo not drawn),120 to 123 °C
6,Cc1cc(C)cc(C(=O)N2CCN(C(=O)CNC3CCN(C(=O)c4ccccc4)CC3)C(c3ccc(Cl)c(Cl)c3)C2)c1 (racemic),94 to 96 °C
7,Nc1nc(-c2cc(Cl)ccc2Cl)nc(N2C[C@H](O)C[C@H]2CO)n1,171 to 173 °C
8,CSc1ncnn1C[C@]1(c2cccc(F)c2)O[C@@H]1c1ccccc1Cl (relative stereo),98 °C
9,CC(C)(c1cccc(C(F)(F)F)c1)N1C[C@H]([C@H](Cc2ccccc2)NC(=O)c2cc(C(=O)O)c3n2CCN(S(C)(=O)=O)C3)OC1=O,147 °C
10,COC(c1ccc(Cl)cc1)(c1cc2c3c(c1)c(-c1cccc(Cl)c1)cc(=O)n3CCC2)c1nncn1C (stereo not drawn),132 °C
11,CCN(CC)C(=O)c1cc2ccccc2[nH]1,108 to 110 °C
12,O=[N+]([O-])c1cc(Br)ccc1-c1ccc(Cl)cc1Cl,112 to 115 °C
13,C=Cc1cc(O)cc2nc(-c3ccc(O)cc3)oc12,249 to 250 °C
14,O=C(O)COCCCCN(c1cnc(-c2ccccc2)c(-c2ccccc2)n1)C1CCCC1,101 to 103 °C
15,C#CCS(=O)c1c(O)cc(C)oc1=O (stereo not drawn),134 °C
16,CCCCCCCCCCCOc1ccc(O)cc1C=O,66 to 67 °C
17,N#Cc1ccnc(Nc2ccc(-n3nc(C(F)(F)F)cc3C(F)(F)F)cc2)c1,152 to 153 °C
18,O=C(O)CC1(C(=O)O)CCSc2ccccc21 (stereo not drawn),168 to 170 °C
19,CN1CCC(N(CCN2CCCC2)S(=O)(=O)c2ccc(Nc3nccc(Nc4ccc(F)cc4)n3)cc2)CC1,250 °C
20,N#CC(C(N)=O)c1ccc(F)c(Cl)c1 (stereo not drawn),156 to 157 °C
21,O=C(O)CCC1CCN(CC(=O)OC2CCCCC2)CC1,85 to 88 °C

row,Compound,melting point
1,Cc1oc(C=Cc2cccc(C(F)(F)F)c2)nc1CCl,99 to 100 °C
2,CCCc1ccc(-n2nc(Cl)cc2-c2ccc(S(C)(=O)=O)cc2)cc1,143 to 144 °C
3,O=c1oc2c(c(O)c1C(c1ccccc1)C1CC1)CCC2 (stereo not drawn),183 to 185 °C
4,NS(=O)(=O)c1ccc(N2CC(=O)N(C3CCCCC3)C2=O)cc1,237 to 238 °C
5,CC(CCCC(C)(C)O)C1CCC2C3CC=C4CC(O)CCC4(C)C3CCC12C (stereo not drawn),168 to 175 °C
6,CCOC(=O)c1cc2c(s1)-n1c(C)nnc1CN=C2c1ccccc1Cl,148 to 150 °C
7,CCNC(=O)N[C@H]1CC[C@H](CCN2CCN(c3cccc4c3CCC4)CC2)CC1,198 to 200 °C
8,N#Cc1ccc(C(=O)N2CCc3c([nH]c4ccccc34)C2)cc1,228 to 232 °C
9,COC(=O)c1cscc1NC(=O)CCl,98 to 100 °C
10,Cc1cccc(-c2[nH]c(C3CC3)nc2-c2cccc(-c3ccc(C(=O)NC4CCOCC4)cc3)c2)n1,127 to 128 °C
11,CN1CCN2c3ncc(Br)cc3Cc3ccccc3C2C1 (stereo not drawn),126 to 128 °C
12,O=C(NCc1ccccc1Cl)C1Cc2ccccc2N1S(=O)(=O)c1ccc(-c2cccc(C(F)(F)F)c2)cc1 (stereo not drawn),142 to 144 °C
13,N#CC1(c2ccccc2)CCCCC1,120 to 122 °C
14,NC(=O)N1CCc2cc(S(N)(=O)=O)sc2C1,205 to 208 °C
15,O=C(NCCCl)Nc1ccc2[nH]ccc2c1,159 to 161 °C
16,NS(=O)(=O)c1ccc(OC2CCCCO2)s1 (stereo not drawn),90 to 92 °C
17,CSc1nc(CO)c(CO)n1-c1ccccc1,137 to 138 °C
18,CC1(C)SC2C(NC(=O)Cc3ccccc3)C(=O)N2C1c1nnn[nH]1 (stereo not drawn),168 to 170 °C
19,O=C(CC1CCCC1)NC[C@H]1CN(c2ccc3c(c2)CCCc2cn[nH]c2-3)C(=O)O1,205 to 208 °C
20,c1cnc2ccc(Cn3nnc4ccc(-c5cnn(C6CCOCC6)c5)nc43)cc2c1,182 to 184 °C

# Other lines, results leading:
row,melting point,Compound
1,212 °C,CCOC(=O)C1=C(C)NC2(C)ON=C(C)C2C1c1ccccc1[N+](=O)[O-] (stereo not drawn)
2,210 to 212 °C,NC(=O)NC(Cc1c[nH]c2ccccc12)C(=O)NCc1cc(C(F)(F)F)cc(C(F)(F)F)c1 (stereo not drawn)
3,163 to 164 °C,COc1ccc(C2(O)OC(=O)C(c3cc(C)c4nsnc4c3)=C2Cc2cc(OC)c(OC3CCCCC3)c(OC)c2)cc1F (stereo not drawn)
4,118 to 120 °C,CCCCn1cc(C(=O)OCC)c(NC(=O)Nc2ccccc2)n1
5,254 °C,COc1cc(N=Nc2ccc3[nH]nnc3c2)c(O)c2ccccc12
6,178 to 180 °C,CN(C)c1c(C(=O)c2ccccc2)[nH]c2cc(Cl)ccc12
7,86.2 °C,COc1ccc(S(=O)(=O)N(CCO)c2ccc(Cl)cc2C(O)c2ccccc2Cl)cc1OC (stereo not drawn)
8,192 to 193 °C,O=C(O)Cc1ccc(CCNS(=O)(=O)c2ccc(F)cc2)cc1
9,184 °C,Cc1ncc2c(c1OCC(=O)O)COC2(C)c1ccc(Cl)cc1 (stereo not drawn)
10,262 to 266 °C,COc1cc2c(c3c1OC(C)(C)C3)C(c1ccc(=O)n(Cc3ccc(C(N)=O)cc3)c1)=NC(C)(C)C2
11,162 to 163 °C,Cc1nccn1CC(COc1cccc(Cl)c1)Sc1c(Cl)cccc1Cl (stereo not drawn)
12,> 240 °C,CC(C)c1cccc(C(C)C)c1NC(=O)Nc1nnn[nH]1
13,153 to 155 °C,CCCCCCCCOc1ccc2nc(C(=O)NCC(=O)O)c(O)cc2c1
14,168 °C,Cc1ccc(-c2ccc(OC3SCC(O)C(O)C3O)cn2)o1 (stereo not drawn)
15,228 to 229 °C,CC(=O)Nc1cc(-c2c(-c3cccc(C)c3)nc3ccc(Cl)nn23)ccn1
16,118 to 120 °C,COc1ccc(Oc2c(C)cc(CC(=O)O)cc2C)cc1C(C)C
17,119 °C,COc1c(C(=O)OCc2ccccc2)nc(-c2ccc(Cl)c(OC)c2F)c(F)c1N
18,261 °C,O=C(O)c1cnn2c(C(F)F)cc(-c3ccc(C(F)(F)F)c(OCC(F)(F)F)c3)nc12

row,melting point,Compound
1,81 to 84 °C,CCOC(=O)Cn1ncc(-c2ccc(OC)cc2)c1-c1ccccc1
2,47 to 48 °C,C=CC(O)c1ccc2cc(OCCCCCC)ccc2c1 (stereo not drawn)
3,103 to 105 °C,CCCOC(=O)c1cc(NC(=O)c2ccccc2C)ccc1Cl
4,83 °C,COc1ccc(Cc2oc3ccc(OC)cc3c2CC#N)cc1
5,210 °C,CC(C)(Nc1ccc(OCc2ccccc2)cc1)C(=O)O
6,77 °C,COC(=O)c1cccc2nc(-c3ccccc3)oc12
7,272 to 273 °C,Cc1nc2c3c(c(C(N)=O)cc2n1C)CCC1(Cc2ccccc2C1)N3
8,277 to 278 °C,Cc1ccc(C(=O)O)cc1Nc1nccc(-c2cccnc2)n1
9,183 °C,C=NOC(c1ccc(C(=O)O)cc1)c1c(C)nn(C)c1Oc1ccccc1 (stereo not drawn)
10,151 to 152 °C,COc1cc2c(cc1OS(N)(=O)=O)CCN(Cc1cccc(NS(C)(=O)=O)c1)C2
11,244 to 245 °C,COC(=O)[C@H](Cc1ccc(NC(=O)c2c(Cl)cccc2Cl)cc1)NC(=O)c1c(C)cccc1Cl
12,126 °C,CCOC(=O)C1=C(C)NC(COCCN=[N+]=[N-])=C(C(=O)OC)C1c1cccc(Cl)c1Cl (stereo not drawn)
13,114 to 116 °C,CC(=O)c1ccc(OCCCC(=O)O)c(C)c1
14,111 to 113 °C,CC(C)CCOc1c(-c2ccc(S(C)(=O)=O)cc2)cnn(CC(F)(F)F)c1=O
15,73 to 75 °C,COC(=O)c1cccc(CN2C(=O)C(CCO)Oc3ccccc32)c1 (stereo not drawn)
16,148 to 149 °C,CC(C)OCC1(C(C)(F)F)c2cc(Cl)ccc2Nc2ncccc21 (stereo not drawn)
17,166 to 168 °C,CCOC(=O)c1cc(NCc2ccccc2)c(Oc2cccc(C(F)(F)F)c2)c(S(N)(=O)=O)c1
18,144 to 146 °C,COc1ccc(C(=O)Nc2cccc(Cl)c2)cc1N
